# Experiment: gradient 5% acetonitrile 3 min, to 50% in 2 min, to 85% in 15 min, held 3 min, 100 µL/min
# Details: column: Zorbax Extend-C18 2.1 x 50 mm; eluents: water / acetonitrile, 0.1% formic acid
# Summary of the method: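 Standards, all pure, were combined into mixtures of ~100 molecules and run at 100 μL/min on a Zorbax Extend-C18 column (2.1 × 50 mm, 1.8 μm) with water and acetonitrile, each containing 0.1% formic acid. A coupled quadrupole time-of-flight mass spectrometer operated in positive and negative ionization mode. Retention time values come from computationally picked adduct peaks, each inspected manually.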
row,RP-LC retention time [s],Structure (SMILES)
1,691,O=C(Cn1nc2nc(N3CCCC3)ccn2c1=O)N1CCN(c2ccccc2F)CC1
2,800,COCCC1CCN(C(=O)COc2ccccc2)CC1
3,883,CC1CCN(C(=O)c2cc(S(=O)(=O)N3CCC(C(=O)N4CCC(C)CC4)CC3)cn2C)CC1
4,800,Cc1cc(C(=O)NCC23CCCC=C2N(CC2CC2)C(=O)CC3)n(C)n1 (centres undefined)
5,974,Cc1ccc(CN2N=C(C(=O)N3CCCCC3)S(=O)(=O)c3ccccc32)cc1
6,970,CCc1nc(-c2csc(S(=O)(=O)N3CCC(C(=O)NCc4cccc(C)c4)CC3)c2)no1
7,1090,CCOc1cccc(-c2noc(Cn3c(=O)n(-c4ccc(C)cc4)c(=O)c4sccc43)n2)c1
8,791,O=C(c1ccc(Cl)cc1)N(CC1CCOC1)C1CC1 (centres undefined)
9,622,CS(=O)(=O)N1CCC(C(=O)NCC2CCN(C(=O)Nc3ccc(F)cc3)CC2)CC1
10,601,CC1CCCCN1CCNC(=O)c1ccc2c(c1)nc1n2CCN(Cc2ccccc2)C1=O (centres undefined)
11,564,CCCCS(=O)(=O)NCC#CCN1CCc2ccccc2C1
12,567,O=C(c1ccc(-n2cnnn2)cc1)N1CCN(c2ccccn2)CC1
13,1030,Cc1c(-c2noc(-c3ccccc3F)n2)nnn1Cc1ccc(F)cc1
14,789,O=C(Nc1nnc(C2CCCCC2)s1)C1CCN(C(=O)c2ccccc2)CC1
15,1030,COc1ccc(C2CC(=O)N(c3ccc(C(C)C)cc3)C(=O)C2)cc1
16,914,O=C(Nc1ccccc1Br)c1ccc(OC(F)F)cc1
17,797,COc1ccc(NC(=O)Cn2nc3c(N4CCSCC4)nccn3c2=O)c(OC)c1
18,931,Cc1ccc(-c2cc3c4nnc(SCC(=O)Nc5ccc(F)cc5)n4ccn3n2)cc1C
19,1220,Cc1cc(C)cc(NC(=O)Nc2nccn(-c3cc(C)cc(C)c3)c2=O)c1
20,744,CC(C)CNC(=O)Cc1nnc(-c2cccc(F)c2)o1
21,708,O=C(Cn1nc2nc(N3CCCC3)ccn2c1=O)Nc1ccc(F)c(Cl)c1
22,554,CCC1(O)CCOC2(CCN(Cc3ccncc3F)CC2)C1 (centres undefined)

row,RP-LC retention time [s],Structure (SMILES)
1,838,Cc1cccc(C)c1NC(=O)NC1CCN(c2nc3ccccc3n(C)c2=O)CC1
2,663,Cc1ccc(-n2c(CN3CCN(C(=O)NC4CCCC4)CC3)nc3cccnc32)cc1
3,822,CCc1nc(-c2cn(Cc3ccc(F)cc3)nn2)no1
4,1270,CCN(C(=O)Cc1ccccc1)c1nc(-c2ccccc2)cs1
5,718,O=C(c1cccc(OCC2CCCN(C(=O)C3CCCO3)C2)c1)N1CCCC1 (centres undefined)
6,595,CCN(CC)CCCC(C)Nc1nc(/C=C/c2cc(OC)c(OC)cc2Cl)nc2cc(Cl)ccc12 (centres undefined)
7,652,CNC(=O)c1c(F)cccc1Nc1nc(Nc2cc3c(cc2OC)CCN3C(=O)CN(C)C)nc2[nH]ccc12
8,801,CCC(=O)Nc1ccc(C2(C(=O)N3CCCCCC3)CCC2)cc1
9,1090,Brc1cccc(-c2noc(Cc3nnc(-c4ccccc4)o3)n2)c1
10,662,CCc1nc2cc(N3CCCC(C(=O)NCCOC)C3)cnc2nc1CC (centres undefined)
11,924,Cc1ccc(-n2ccn3cc(-c4ccc(F)cc4)nc3c2=O)cc1Cl
12,833,COc1cc(OC)cc(N2C(=O)CC(c3ccc(OC)c(OC)c3)CC2=O)c1
13,605,CCc1nc2cc(N3CCC(C(=O)NCCN4CCCCC4C)CC3)cnc2nc1CC (centres undefined)
14,794,Cc1ccnc(NC(=O)C2CCN(S(=O)(=O)c3ccc4c(c3)sc(=O)n4C(C)C)CC2)c1
15,868,COc1ccc(NS(=O)(=O)c2ccc(-c3nnc(C4CCC4)o3)o2)cc1F
16,648,COCc1cn(CC2CCCN(Cc3cn(C(C)C)c4ccc(OC)cc34)C2)nn1 (centres undefined)
17,738,NC(=O)c1ccc(NC(=O)CSC2=Nc3ccccc3N=C(c3ccccn3)C2)cc1
18,1080,C[C@H]1CN(C(=O)Nc2ccc(Cl)cc2)C[C@@H]1c1nc(-c2ccccc2)no1
19,768,Cc1noc(C)c1Cc1c(C(=O)NCC23CCC=C2N(C)C(=O)CC3)noc1C (centres undefined)
20,684,O=C(Cn1cnc(-c2ccc(F)cc2)cc1=O)NCc1ccco1
21,913,O=C(c1ccccc1Br)N1CCN(c2cc(-c3ccc(Cl)cc3)[nH]n2)CC1
22,1240,COc1ccc(-c2noc(N3CCC(Cc4ccccc4)CC3)n2)cc1OC

row,RP-LC retention time [s],Structure (SMILES)
1,637,O=C(c1ccc(=O)oc1)N1CCN(Cc2nc(-c3ccccc3)cs2)CC1
2,821,COc1ccc2[nH]cc(CCN3CC(C(=O)Nc4cc(F)cc(F)c4)CC3=O)c2c1 (centres undefined)
3,892,CCN1CCN(Cc2nc(-c3ccc(N(C)Cc4ccccc4)nc3)no2)CC1
4,1090,O=C(NCc1ccc(Br)cc1)c1sc2ncccc2c1-n1cccc1
5,772,O=C(NCCc1ccc(Cl)cc1)C(=O)Nc1ccon1
6,730,COc1ccc(-c2nc(C)c(C(=O)O)s2)cc1OC
7,868,COc1ccc(CC(=O)N2CCCC2c2cc(C(C)C)no2)cc1 (centres undefined)
8,887,Cc1ccc(N(Cc2nc3nc(C)c(Cl)c(C)n3n2)C(=O)c2ccco2)cc1
9,762,CCn1cc(CCNC(=O)Nc2ccsc2C(=O)OC)c2cccnc21
10,898,CC1=C(c2ccc(C)cc2)S(=O)(=O)N=C1N1CCCN(C(=O)c2ccccc2C)CC1
11,818,COc1cccc(-n2c(N3CCCC(C(=O)NCC(C)C)C3)nc3ccsc3c2=O)c1 (centres undefined)
12,942,Cc1noc(C)c1-c1ccc(S(=O)(=O)NCc2ccc(F)cc2)cc1
13,591,OC1(c2ccccn2)CCOC2(CCN(Cc3ccc(Cl)c(F)c3)CC2)C1 (centres undefined)
14,1040,COc1cccc(C(=O)NC2(C(F)(F)F)C(=O)N(CC(C)C)C3=C2C(=O)CC(C)(C)C3)c1 (centres undefined)
15,1200,Cc1cccc(CNC(=O)c2cc3c(-c4cccs4)nn(-c4ccccc4)c3n2C)c1
16,773,COc1ccc(CCNC(=O)N2CC(c3nc(-c4cccs4)no3)C2)cc1
17,642,COc1ccc(NC(=O)Cn2nc3n(c2=O)CCCC3)c(OC)c1
18,704,CCC(=O)Nc1nc(-c2ccc3c(c2)NC(=O)CO3)cs1
19,841,CCCCOC(=O)CC1C(=O)NCCN1C(=O)c1cc(Br)ccc1OCC (centres undefined)
20,982,CCCCC(=O)Nc1nc(-c2ccc3c(c2)N(CC)C(=O)CO3)c(C)s1
21,705,CN1C(=O)NC2(CCN(C(=O)C3c4ccccc4Oc4ccccc43)CC2)C1=O
22,1070,CCCc1ccc(S(=O)(=O)N2CCc3c(c(-c4nnc(-c5ccc(F)cc5)o4)nn3C)C2)cc1

row,RP-LC retention time [s],Structure (SMILES)
1,612,CC(NC(=O)c1cc2ccccc2[nH]1)C(=O)N1CCN(c2ccccn2)CC1 (centres undefined)
2,1010,CCc1nn2c(CNS(=O)(=O)Cc3cccc(Cl)c3)c(-c3ccccc3)nc2s1
3,850,COc1ccc(S(=O)(=O)N2CC3CN(C(=O)C4CCCCC4)CC(C2)O3)cc1
4,820,CSc1ccc(CCNC(=O)C2CCCN(c3ncnc4c3nc3n4CCCCC3)C2)cc1 (centres undefined)
5,562,CC(=O)N1C[C@@H]2CCCN3CCC[C@@H]([C@H]23)[C@H]1CCCC(=O)NCC1CC1
6,754,O=C(Cn1c(=O)n(-c2ccc(F)cc2)c2ncccc21)N1CCCCC1
7,646,CC(C)CCN1CCC(N2CCN(S(=O)(=O)Cc3ccccc3)CC2)C1=O (centres undefined)
8,593,Cc1noc(C)c1CCNC(=O)c1cn2ccccc2n1
9,656,CCCc1cc(N2CCN(C(=O)C(C)Oc3ccccc3)CC2)nc2nnc(C)n12 (centres undefined)
10,1170,COC(=O)c1cc(C)nc2c1c(=O)n(Cc1cc(C)ccc1C)c(=O)n2Cc1ccco1
11,780,Cc1nn(-c2ccc(C(=O)NCc3ccc4c(c3)OCO4)cc2)c2c1C(=O)CCC2
12,981,O=C(NC1CCCCC1)c1nc(Cn2c(=O)oc3ccc(Cl)cc32)no1
13,716,CC(C)CC(NC(=O)Cc1cccs1)C(=O)Nc1nc2ccccc2[nH]1 (centres undefined)
14,956,CN1C(=O)c2cc(C(=O)N3CCC(C(N)=O)CC3)nn2CC1(C)C(=O)NC1CCCCCC1 (centres undefined)
15,840,COc1ccc(/C(=N/O)C(c2ccc(OC)cc2)C2C(=O)Oc3ccccc32)cc1 (centres undefined)
16,596,Cc1nc2cc(C(=O)N3CCOCC3)ccc2n(C)c1=O
17,742,N#Cc1ccc(C(=O)NC2CCN(c3ccccc3)C2=O)cc1 (centres undefined)
18,627,COCCC1CCN(C(=O)CN(C)C(=O)Cc2c(C)noc2C)CC1
19,552,O=C(C1CCN(c2cncnc2N2CCCC2)CC1)N1CCN(c2ccccn2)CC1
20,866,C[C@H](C(=O)O)c1cccc(C(=O)c2ccccc2)c1
21,842,Cc1cc(C)c(S(=O)(=O)N2CCCC(C(=O)NC3CC3)C2)c(C)c1 (centres undefined)
22,594,O=C(NCc1cc(F)cc(F)c1)c1ccc2c(c1)ncn2CCN1CCCC1

row,Structure (SMILES),RP-LC retention time [s]
1,O=C(c1ccc(-c2ccnc(N3CCCCC3)n2)cc1)N1CCC2(CC1)OCCO2,882
